According to patent US20220323406A1, “METHODS AND COMPOSITIONS FOR DIFFERENTIATING STEM CELLS” (Massachusetts Institute of Technology, priority 2019, published 2022):

Key:
[1] = tested on: ENR+CD organoids (ISC to Paneth cell differentiation); experiment: Primary screen: basal (non-stimulated) lysozyme secretion LYZ.NS, 2.5-D 384-well ENR+CD organoid differentiation; type: cell-based, mouse; conditions: primary screen; for Z.LYZ.NS: standard z score; for Dose.FC.LYZ.NS: FC vs plate median
From the text: (§1) High-throughput screening.

[2] = tested on: ENR+CD organoids (ISC to Paneth cell differentiation); experiment: Primary screen: CCh-stimulated lysozyme secretion LYZ.S, 2.5-D 384-well ENR+CD organoid differentiation; type: cell-based, mouse; conditions: primary screen, FC vs plate median
From the text: as §1

[3] = tested on: ENR+CD organoids (ISC to Paneth cell differentiation); experiment: Secondary (validation) screen: LYZ.NS basal lysozyme secretion, 2.5-D 384-well ENR+CD organoids; type: cell-based, mouse; conditions: 6-day ENR+CD, vs ENR+CD+DMSO
[4] = tested on: ENR+CD organoids (ISC to Paneth cell differentiation); experiment: Secondary (validation) screen: LYZ.S CCh-stimulated lysozyme secretion, 2.5-D 384-well ENR+CD organoids; type: cell-based, mouse; conditions: 6-day ENR+CD, vs ENR+CD+DMSO
ENR+CD organoids [5] = experiment: Secondary (validation) screen: ATP (CTG) assay, 2.5-D 384-well ENR+CD organoids; type: cell-based, mouse; conditions: 6-day ENR+CD, vs ENR+CD+DMSO
ENR+CD organoids [6] = experiment: Primary screen: ATP (CellTiter-Glo 3D, CTG) cell number/viability, 2.5-D 384-well ENR+CD organoids; conditions: primary screen; for Z.CTG: standard z score; for Dose.FC.CTG: FC vs plate median;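 on all read-outs here: compounds given at plating and again on day 3 over a 6-day differentiation from ENR+CV stem-cell-enriched precursors, ATP measured on day 6, plate median as control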

**Q.** For CCc1cncnc1N1CCN(Cc2nc3ccc(C(F)(F)F)cc3[nH]2)CC1 [PF-4708671], which Z.LYZ.NS ([1]; dose 0.08 uM) is on record?
**A.** 0.654

**Q.** What about the Z.LYZ.NS ([1]; dose 0.40 uM) of the same compound?
**A.** 1.059

**Q.** And the Z.LYZ.NS ([1]; dose 2.00 uM)?
**A.** 1.721

**Q.** And the Z.LYZ.NS ([1]; dose 10.00 uM)?
**A.** 0.297

**Q.** And the Dose.FC.LYZ.NS ([1]; dose 0.08 uM)?
**A.** 0.075 log2 fold change

**Q.** What about the Dose.FC.LYZ.NS ([1]; dose 0.40 uM) of the same compound?
**A.** 0.122 log2 fold change

**Q.** And the Dose.FC.LYZ.NS ([1]; dose 2.00 uM)?
**A.** 0.198 log2 fold change

**Q.** What about the Dose.FC.LYZ.NS ([1]; dose 10.00 uM) of the same compound?
**A.** 0.034 log2 fold change

**Q.** And the Dose.FC.LYZ.S ([2]; dose 0.08 uM)?
**A.** 0.136 log2 fold change

**Q.** What about the Dose.FC.LYZ.S ([2]; dose 0.40 uM) of the same compound?
**A.** 0.172 log2 fold change

**Q.** What about the Dose.FC.LYZ.S ([2]; dose 2.00 uM) of the same compound?
**A.** 0.209 log2 fold change

**Q.** And the Dose.FC.LYZ.S ([2]; dose 10.00 uM)?
**A.** −0.024 log2 fold change

**Q.** And the Dose.FC.LYZ.NS ([3]; 0.50 uM)?
**A.** 0.005 log2 fold change

**Q.** And the Z.LYZ.NS ([3]; 0.50 uM)?
**A.** 0.039

**Q.** What about the repSSMD.LYZ.NS ([3]; 0.50 uM) of the same compound?
**A.** 0.058

**Q.** And the Dose.FC.LYZ.NS ([3]; 1.00 uM)?
**A.** −0.200 log2 fold change

**Q.** What about the Z.LYZ.NS ([3]; 1.00 uM) of the same compound?
**A.** −1.600

**Q.** What about the repSSMD.LYZ.NS ([3]; 1.00 uM) of the same compound?
**A.** −1.909

**Q.** And the Dose.FC.LYZ.NS ([3]; 2.00 uM)?
**A.** −0.221 log2 fold change

**Q.** And the Z.LYZ.NS ([3]; 2.00 uM)?
**A.** −1.764

**Q.** And the repSSMD.LYZ.NS ([3]; 2.00 uM)?
**A.** −2.529

**Q.** And the Dose.FC.LYZ.NS ([3]; 4.00 uM)?
**A.** 0.015 log2 fold change

**Q.** What about the Z.LYZ.NS ([3]; 4.00 uM) of the same compound?
**A.** 0.120

**Q.** And the repSSMD.LYZ.NS ([3]; 4.00 uM)?
**A.** 0.171

**Q.** What about the Dose.FC.LYZ.S ([4]; 0.50 uM) of the same compound?
**A.** −0.040 log2 fold change

**Q.** What about the Z.LYZ.S ([4]; 0.50 uM) of the same compound?
**A.** −0.305

**Q.** And the repSSMD.LYZ.S ([4]; 0.50 uM)?
**A.** −0.496

**Q.** What about the Dose.FC.LYZ.S ([4]; 1.00 uM) of the same compound?
**A.** −0.245 log2 fold change

**Q.** What about the Z.LYZ.S ([4]; 1.00 uM) of the same compound?
**A.** −1.879

**Q.** And the repSSMD.LYZ.S ([4]; 1.00 uM)?
**A.** −2.451

**Q.** And the Dose.FC.LYZ.S ([4]; 2.00 uM)?
**A.** −0.272 log2 fold change

**Q.** And the Z.LYZ.S ([4]; 2.00 uM)?
**A.** −2.088

**Q.** What about the repSSMD.LYZ.S ([4]; 2.00 uM) of the same compound?
**A.** −3.604

**Q.** And the Dose.FC.LYZ.S ([4]; 4.00 uM)?
**A.** −0.042 log2 fold change

**Q.** And the Z.LYZ.S ([4]; 4.00 uM)?
**A.** −0.320

**Q.** What about the repSSMD.LYZ.S ([4]; 4.00 uM) of the same compound?
**A.** −0.503

**Q.** And the Dose.FC.CTG (ENR+CD organoids [5]; 0.50 uM)?
**A.** −0.049 log2 fold change

**Q.** What about the Z.CTG (ENR+CD organoids [5]; 0.50 uM) of the same compound?
**A.** −0.443

**Q.** And the repSSMD.CTG (ENR+CD organoids [5]; 0.50 uM)?
**A.** −0.324

**Q.** And the Dose.FC.CTG (ENR+CD organoids [5]; 1.00 uM)?
**A.** −0.039 log2 fold change

**Q.** What about the Z.CTG (ENR+CD organoids [5]; 1.00 uM) of the same compound?
**A.** −0.354

**Q.** And the repSSMD.CTG (ENR+CD organoids [5]; 1.00 uM)?
**A.** −0.284

**Q.** What about the Dose.FC.CTG (ENR+CD organoids [5]; 2.00 uM) of the same compound?
**A.** −0.076 log2 fold change

**Q.** What about the Z.CTG (ENR+CD organoids [5]; 2.00 uM) of the same compound?
**A.** −0.684

**Q.** What about the repSSMD.CTG (ENR+CD organoids [5]; 2.00 uM) of the same compound?
**A.** −0.558

**Q.** And the Dose.FC.CTG (ENR+CD organoids [5]; 4.00 uM)?
**A.** 0.067 log2 fold change

**Q.** And the Z.CTG (ENR+CD organoids [5]; 4.00 uM)?
**A.** 0.601

**Q.** What about the repSSMD.CTG (ENR+CD organoids [5]; 4.00 uM) of the same compound?
**A.** 0.414

**Q.** What about the Z.CTG (ENR+CD organoids [6]; dose 0.08 uM) of the same compound?
**A.** 0.623

**Q.** What about the Z.CTG (ENR+CD organoids [6]; dose 0.40 uM) of the same compound?
**A.** 0.640

**Q.** And the Z.CTG (ENR+CD organoids [6]; dose 2.00 uM)?
**A.** 0.721

**Q.** And the Z.CTG (ENR+CD organoids [6]; dose 10.00 uM)?
**A.** −0.766

**Q.** What about the Dose.FC.CTG (ENR+CD organoids [6]; dose 0.08 uM) of the same compound?
**A.** 0.261 log2 fold change

**Q.** And the Dose.FC.CTG (ENR+CD organoids [6]; dose 0.40 uM)?
**A.** 0.268 log2 fold change

**Q.** What about the Dose.FC.CTG (ENR+CD organoids [6]; dose 2.00 uM) of the same compound?
**A.** 0.302 log2 fold change

**Q.** What about the Dose.FC.CTG (ENR+CD organoids [6]; dose 10.00 uM) of the same compound?
**A.** −0.321 log2 fold change
